According to patent US7737250B2, “Peptides for treating axonal damage, inhibition of neurotransmitter release and pain transmission, and blocking calcium influx in neurons” (Mount Sinai School of Medicine of New York University, priority 2003, dated 2010):

How the values were obtained:
[1] = system: complex containing L1-CAM, ankyrin B and Cav2.2; experiment: Co-precipitation of L1-CAM and ankyrin B with Cav2.2 channel protein from DRG neurons; assay type: cell-based; conditions: chick DRG neurons treated with saline; peptide pretreatment
Description: Co-precipitation: 1×10^6 DRG cells were used for each condition. DRG neurons were exposed to control solution containing 100 μM bicuculline or 100 μM GABA in the presence of 100 μM bicuculline. After agonist treatment, DRG neurons were lysed with ice-cold buffer (phosphate buffered saline, pH 7.4, containing 250 μM sodium pervanadate, 1% (v/v) NP-40, 1 mM Pefabloc, 1 mM EDTA, 1 mM EGTA, 10 μg/ml pepstatin, 10 μg/ml leupeptin, and 100 μg/ml soybean trypsin inhibitor, 100 μg/ml calpain I and 100 μg/ml calpain II inhibitors. The α1subunit of the Cav2.2 channel was immunoprecipitated as previously described (Schiff, M. L et al., (2000). Nature 408:723-726.).
Cell culture, transmitter application: Cell culture and transmitter application, were performed as described in Example 10, supra. For experiments determining the effect of activation of GABAB receptors upon L1-CAM-ankyrin-calcium channel interaction in DRG neurons, calcium channels were precipitated from DRG neurons treated with saline or baclofen for 20 seconds using anti-pan alpha 1 antibody and then immunoblotted for ankyrin (anti-ankyrin B antibody) or L1-CAM (8D9 anti-NgCAM).

Cav2.2 current = experiment: Whole-cell calcium current recording in DRG neurons; assay type: cell-based, chick; conditions: 1.4 ng/ml peptide in recording pipette; after 2 minutes of recording
Description: Electrophysiology: Standard tight seal, whole-cell recording methods [Hamill et al.,1981 Pflugers Arch. 381, 85-10] were employed. Cells were incubated in an external solution containing 133 mM NaCl, 1 mM CaCl2, 0.8 mM MgCl2, 25 mM HEPES, 12.5 mM NaOH, 5mM glucose, 10 mM tetraethylammonium chloride, […] (pH 7.4). Experiments were performed on the stage of an inverted microscope. Recording pipettes were fabricated from microhemnatocrit tubing (Fisher) and filled with an internal recording solution containing 150 mM CsCl, 5 BAPTA, 5 MgATP, 10 HEPES (pH 7.2). All salts were obtained from Fluka. Initial pipette resistances were 0.8-1.2 MΩ. […]
Electrophysiology Data Analysis—Data was filtered at 3 kHz, acquired at 10-20 kHz and analyzed using PulseFit (HEKA) and IgorPro (WaveMetrics) on a Macintosh G3 computer. […] Such conditioning pulses have no effect on control currents recorded in the absence of GABA. During the application of the transmitter, test pulse currents measured before and after the conditioning pulse are subtracted to yield the voltage-dependent component. Test pulses measured following the conditioning pulse are subtracted from control currents (measured in the absence of GABA) to yield the voltage-independent component.

## RQIKIWFQNRRMKWKKFQGIFSGDENFQ [AP-Scramble]
[1]
  co-precipitation of L1-CAM and ankyrin B with Cav2.2 channel protein: not
Cav2.2 current
  inhibition of calcium current: no significant effect

## RQIKIWFQNRRMKWKKQFNEDGSFIGQF [AP-YF]
[1]
  co-precipitation of L1-CAM and ankyrin B with Cav2.2 channel protein: abolished the interaction
Cav2.2 current
  inhibition of calcium current: 83+17%
